Values joined by “and” are separate entries in the source; they are usually repeats but may differ in a detail not shown here. Equal entries are not always repeated.
Legend:
[1] = tested on: serum thymic stromal lymphopoietin (TSLP); assay: Mouse ear eczema model: serum TSLP by enzyme-linked immunosorbent assay; format: in vivo, BALB/c mice; details: for Serum TSLP content versus blank group: compared with the blank group; for Serum TSLP content versus model group: compared with the model group; for Reduction level of serum TSLP content versus positive group: compared with the positive group (dexamethasone acetate cream)
Excerpt: (§1) (1) Preparation method of a JAK-PROTAC cream: the same as in Example 1.
(§2) (2) Positive therapeutic drug: a 0.050% dexamethasone acetate cream (manufacturer: Shanghai Skin Disease Hospital).
(§3) (3) Blank matrix: a matrix component produced after the active ingredient JAK-PROTAC was removed from the cream.
(§4) (4) Molding agent: solution of calcipotriol in ethanol (manufacturer: MACKLIN).
(§5) (1) The mice were randomly divided into a blank control group (6 mice) (Control), a model group (6 mice) (Model), a positive drug group (6 mice) (Positive), a Compound 1-treating group (0.15% JAK-PROTAC cream 1 for external use) (6 mice) (Treat 1), and a Compound 2-treating group (0.15% JAK-PROTAC cream 2 for external use) (6 mice) (Treat 2).
(§6) (2) Molding was conducted in the following manner:
(§7) A. On day 0 to day 7 of the modeling: At 9 a.m., the blank control group was administered with the cream matrix, the model group was administered with the molding agent, the positive group was administered with the molding agent, the Compound 1-treating group was administered with the molding agent, and the Compound 2-treating group was administered with the molding agent. At 5 p.m., the blank control group was not treated, the model group was administered with the cream matrix, the positive group was administered with the dexamethasone acetate cream, the Compound 1-treating group was administered with the JAK-PROTAC cream 1, and the Compound 2-treating group was administered with the JAK-PROTAC cream 2.
as §7, with “B.” for “A.”, “8” for “0”, “10” for “7”, “modeling, at” for “modeling: At”, “not treated,” for “administered with the molding agent,”, “not treated.” for “administered with the molding agent.”
(§8) C. On day 11 of the modeling: At 9 a.m., the blank control group was administered with the cream matrix, the model group was not treated, the positive group was not treated, the Compound 1-treating group was not treated, and the Compound 2-treating group was not treated. At 1 p.m., the mice were sacrificed through cervical dislocation, and the spleen and two ears of each mouse were collected.
(4) The TSLP content in serum was detected by enzyme-linked immunosorbent assay.
(§9) The data of the present disclosure was processed with the Excel and GraphPad software. The experimental data was tested by one-way ANOVA. The post-hoc multiple comparison was conducted with the least significant difference (LSD). P<0.05 indicated a significant difference.

[2] = tested on: mouse ear eczema model (ear thickness); assay: Mouse ear eczema model: ear thickness; format: in vivo, BALB/c mice; details: for Ear thickness, mean value: group mean; for Ear thickness: individual mice, two ears; for Ear thickness difference among Compound 1-, Compound 2-treating and positive drug groups / Ear thickness of model group versus treated groups: after the modeling; for Ear thickness of model group versus treated groups: result is for model group relative to the treated groups
Excerpt: as §1, §2, §3, §4, §5, §6, §7
as §7, with “B.” for “A.”, “8” for “0”, “10” for “7”, “modeling, at” for “modeling: At”, “not treated,” for “administered with the molding agent,”, “not treated.” for “administered with the molding agent.”
as §8
(§10) (2) A body weight and thicknesses of two ears of each mouse were recorded daily.
as §9

[3] = tested on: mouse ear eczema model (spleen); assay: Mouse ear eczema model: body weight, spleen weight and spleen index; format: in vivo, BALB/c mice; details: for Ranking in terms of spleen weight and spleen index: AD model, positive drug, Compound 1 and Compound 2 groups; for Therapeutic effect for AD / Therapeutic effect versus the positive drug: atopic dermatitis mouse models; for Therapeutic effect versus the positive drug: positive drug = 0.050% dexamethasone acetate cream; for Spleen weights and spleen indexes versus blank control group: compared with the blank control group; for Spleen weight, mean value: group mean; for Spleen weight, mean value / Spleen weight: day 11, wet weight; for Spleen weight: individual mice
Excerpt: as §1, §2, §3, §4, §5, §6, §7
as §7, with “B.” for “A.”, “8” for “0”, “10” for “7”, “modeling, at” for “modeling: At”, “not treated,” for “administered with the molding agent,”, “not treated.” for “administered with the molding agent.”
as §8
(3) Spleen index testing:
After the mice were sacrificed, a spleen tissue was collected, dried with a filter paper to remove blood stains on a surface, and weighed for a wet weight. A spleen index was calculated as follows: spleen index=10,000×spleen weight (g)/body weight (g).
as §10
(3) After the experiment was completed, a spleen index of each mouse was calculated.
as §9

[4] = tested on: RAW 264.7 cells; assay: NO content assay in LPS+IFN-γ induced RAW 264.7 macrophage inflammatory model; format: cell-based; details: for NO level versus LPS+IFN-γ model group: 0.05, 0.1, 0.2 g/mL (so in the source), 0.4 and 0.8 μg/mL, 24 h, LPS 0.5 μg/mL + IFN-γ 2 ng/mL; for Inhibition of inflammation: concentration range of 0.05 μg/mL to 0.8 μg/mL; for Concentration of optimal anti-inflammatory effect: tested 0.05 μg/mL to 0.8 μg/mL
Description: (1) Reagents: compound 1: a compound shown by Compound 1 in formula (I); compound 2: a compound shown by Compound 2 in Formula (I); DMEM high-glucose medium: Wuhan Pricella Biotechnology Co., Ltd.; South American FBS and trypsin: Gibco, USA; penicillin-streptomycin: Hyclone, USA; and nitric oxide (NO) assay kit: Beyotime.
(2) Instruments: CO2 incubator: HERA cell 240; and microplate reader: Thermo Fisher Scientific, USA.
Induction of an RAW 264.7 macrophage inflammatory model with lipopolysaccharide (LPS) and interferon-gamma (IFN-γ): RAW 264.7 cells in a logarithmic growth phase were taken and inoculated in a 96-well cell culture plate at 20×10^3 cells/well, and cultured for 24 h until the cells were adherent. Ablank control group of 0 μg/mL, a model group of 0.5 μg/mL LPS+2 ng/mL IFN-γ, and experimental groups of compounds 1 and 2 at concentrations of 0.05 μg/mL, 0.1 μg/mL, 0.2 μg/mL, 0.4 μg/mL, and 0.8 μg/mL were set. Three replicate wells were set for each group. In the blank control group, cells were incubated with serum-free DMEM. In the LPS+IFN-γ model group, cells were incubated with serum-free DMEM. After 24 h of incubation, morphological changes of cells were observed, and a concentration of NO was determined according to instructions of the NO assay kit.
The data of the present disclosure was processed with the Excel and Graphpad software. The experimental data were tested by one-way ANOVA. The post-hoc multiple comparison was conducted with the LSD. P<0.05 indicated a significant difference.

[5] = tested on: mouse ear eczema model (atopic dermatitis); assay: Mouse ear eczema model (calcipotriol-induced): SCORAD of skin damage and overall therapeutic effect; format: in vivo, BALB/c mice; details: 0.15% cream for external use; result is for model group relative to the treated groups
Excerpt: as §1, §2, §3, §4, §5
(2) Molding was conducted in the following manner: […]
(1) The photographing was conducted every day. The severity of skin damage in an ear application region was evaluated through SCORAD for mice. […] Each symptom was scored as 0 to 3 depending on the severity of a skin damage: asymptomatic: 0, mild: 1, moderate: 2, and severe: 3. […]

[6] = Day0, cream for external use (JAK-PROTAC 0.15%, dexamethasone acetate 0.050%)
[7] = Day0 of modeling, cream for external use (JAK-PROTAC 0.15%, dexamethasone acetate 0.050%)

SMILES	Serum TSLP content versus blank group [1]	Serum TSLP content versus model group [1]	Reduction level of serum TSLP content versus positive group [1]	Ear thickness, mean value [2, 6] [mm]	Ear thickness [2, 7]	Ear thickness, mean value ([2]; Day 1) [mm]	Ear thickness ([2]; Day 1)	Ear thickness, mean value ([2]; Day2) [mm]	Ear thickness ([2]; Day2)	Ear thickness, mean value ([2]; Day3) [mm]	Ear thickness ([2]; Day3)	Ear thickness, mean value ([2]; Day4) [mm]	Ear thickness ([2]; Day4)	Ear thickness, mean value ([2]; Day5) [mm]	Ear thickness ([2]; Day5)	Ear thickness, mean value ([2]; Day6) [mm]	Ear thickness ([2]; Day6)	Ear thickness, mean value ([2]; Day7) [mm]	Ear thickness ([2]; Day7)	Ear thickness, mean value ([2]; Day8) [mm]	other results
N#CC[C@H](C1CCCC1)n1cc(-c2nc(Nc3ccc(C(=O)NCCCCNc4cccc5c4C(=O)N(C4CCC(=O)NC4=O)C5=O)cc3)nc3[nH]ccc23)cn1 (stereo partly drawn) [Compound 1]	increased compared with the blank group (P<0.01)	significantly reduced compared with the model group (P<0.01)	greater than a reduction level of a TSLP content in the positive group (P<0.01)	0.24	0.23 mm (2×) and 0.24 mm (3×) and 0.26 mm and 0.25 mm (2×)	0.27	0.26 mm (5×) and 0.29 mm and 0.28 mm and 0.27 mm	0.28	0.30 mm (3×) and 0.27 mm (3×) and 0.28 mm and 0.24 mm	0.28	0.30 mm and 0.31 mm and 0.26 mm and 0.28 mm and 0.27 mm (2×) and 0.29 mm and 0.24 mm	0.28	0.27 mm (2×) and 0.33 mm and 0.31 mm and 0.30 mm and 0.25 mm (2×) and 0.28 mm	0.29	0.32 mm (3×) and 0.29 mm and 0.28 mm (2×) and 0.30 mm and 0.24 mm	0.32	0.34 mm and 0.35 mm (2×) and 0.36 mm and 0.31 mm and 0.30 mm and 0.25 mm and 0.33 mm	0.33	0.33 mm (2×) and 0.32 mm and 0.37 mm and 0.35 mm and 0.36 mm and 0.26 mm and 0.34 mm	0.32	Ear thickness ([2]; Day8): 0.30 mm and 0.33 mm and 0.32 mm (2×) and 0.35 mm and 0.37 mm and 0.24 mm and 0.34 mm; Ear thickness difference among Compound 1-, Compound 2-treating and positive drug groups [2]: no significant difference among the Compound 1- and Compound 2-treating groups and the positive drug group (P>0.05); Ear thickness of model group versus treated groups [2]: significantly larger than ear thicknesses of the Compound 1- and Compound 2-treating groups, the positive drug group, and the blank control group (P<0.05); Ranking in terms of spleen weight and spleen index [3]: the Compound 1-treating group>the Compound 2-treating group>the positive drug group>the AD model group (P<0.05); Therapeutic effect for AD [3]: had a therapeutic effect for AD, could improve the inflammatory responses in atopic dermatitis mouse models; Therapeutic effect versus the positive drug [3]: exhibited a better therapeutic effect than the positive drug; Spleen weights and spleen indexes versus blank control group [3]: significantly reduced (P<0.05); Spleen weight, mean value [3]: 0.0862 g; Spleen weight [3]: 0.0798 g and 0.0934 g and 0.0855 g; NO level versus LPS+IFN-γ model group [4]: reduced; Inhibition of inflammation [4]: could effectively inhibit the inflammation; Concentration of optimal anti-inflammatory effect [4]: 0.4 µg/mL; Erythema, scale, and infiltration scores and total scores (SCORAD) of model group versus treated groups [5]: significantly higher than the respective scores in the Compound 1- and Compound 2-treating groups (P<0.05)
CCS(=O)(=O)N1CC(CC#N)(n2cc(-c3nc(Nc4ccc(C(=O)NCCCCNc5cccc6c5C(=O)N(C5CCC(=O)NC5=O)C6=O)cc4)nc4[nH]ccc34)cn2)C1 (stereo not drawn) [Compound 2]	increased compared with the blank group (P<0.01)	significantly reduced compared with the model group (P<0.01)	greater than a reduction level of a TSLP content in the positive group (P<0.01)	0.22	0.22 mm (3×) and 0.24 mm (2×) and 0.21 mm (3×)	0.26	0.28 mm and 0.29 mm and 0.24 mm (2×) and 0.25 mm (3×) and 0.26 mm	0.25	0.23 mm (3×) and 0.29 mm and 0.21 mm and 0.26 mm (2×) and 0.25 mm	0.26	0.26 mm (5×) and 0.27 mm and 0.24 mm and 0.25 mm	0.27	0.29 mm and 0.27 mm and 0.26 mm (2×) and 0.28 mm (2×) and 0.25 mm and 0.24 mm	0.29	0.29 mm (3×) and 0.30 mm (2×) and 0.28 mm and 0.31 mm and 0.26 mm	0.32	0.32 mm (2×) and 0.33 mm (2×) and 0.31 mm (2×) and 0.30 mm (2×)	0.35	0.34 mm (2×) and 0.36 mm (5×) and 0.35 mm	0.35	Ear thickness ([2]; Day8): 0.34 mm (4×) and 0.36 mm (2×) and 0.39 mm and 0.33 mm; Ear thickness difference among Compound 1-, Compound 2-treating and positive drug groups [2]: no significant difference among the Compound 1- and Compound 2-treating groups and the positive drug group (P>0.05); Ear thickness of model group versus treated groups [2]: significantly larger than ear thicknesses of the Compound 1- and Compound 2-treating groups, the positive drug group, and the blank control group (P<0.05); Ranking in terms of spleen weight and spleen index [3]: the Compound 1-treating group>the Compound 2-treating group>the positive drug group>the AD model group (P<0.05); Therapeutic effect for AD [3]: had a therapeutic effect for AD, could improve the inflammatory responses in atopic dermatitis mouse models; Therapeutic effect versus the positive drug [3]: exhibited a better therapeutic effect than the positive drug; Spleen weights and spleen indexes versus blank control group [3]: significantly reduced (P<0.05); Spleen weight, mean value [3]: 0.0732 g; Spleen weight [3]: 0.0749 g and 0.0739 g and 0.0708 g; NO level versus LPS+IFN-γ model group [4]: reduced; Inhibition of inflammation [4]: could effectively inhibit the inflammation; Concentration of optimal anti-inflammatory effect [4]: 0.4 µg/mL; Erythema, scale, and infiltration scores and total scores (SCORAD) of model group versus treated groups [5]: significantly higher than the respective scores in the Compound 1- and Compound 2-treating groups (P<0.05)

Reference: patent US20260365655A1, “NEW USE OF JANUS KINASE (JAK)-DEGRADING AGENT BASED ON PROTEOLYSIS TARGETING CHIMERA (PROTAC)” (SHANGHAI SKIN DISEASE HOSPITAL, priority 2022, published 2026)
